# According to patent US20260256792A1, “TREATMENT OF CHRONIC SPONTANEOUS URTICARIA BY ADMINISTERING (R)-2-[3-[4-AMINO-3-(2-FLUORO-4-PHENOXY-PHENYL)PYRAZOLO[3,4-D]PYRIMIDIN-1-YL]PIPERIDINE-1-CARBONYL]-4-METHYL-4-[4-(OXETAN-3-YL)PIPERAZIN-1-YL]PENT-2-ENENITRILE” (priority 2023, published 2026):
# Test system: angioedema in CSU patients
# Test: Phase 2 CSU study: angioedema activity score over 7 days (AAS7)
# Assay type: in vivo, human
# Design: AAS7, Median / AAS7 Change from baseline, Median: scale not given here
# Conditions: for Non-responder n (%), AAS7 = 0 / OR (95% CI) for rilzabrutinib vs. placebo, AAS7 = 0 / RRD (%) for rilzabrutinib vs. placebo (95% CI), AAS7 = 0 / Responder n (%), AAS7 = 0: outlier removed
# Source text: The study comprises a 12 week, randomized, double-blind, placebo-controlled, multi-center, dose-ranging efficacy and safety phase, followed by a 40 week open label extension (OLE) phase (see FIG. 1). The study consists of three phases and an optional OLE phase. […] The weekly angioedema activity score (AAS7) was proposed as a tertiary endpoint. […] Patients were to complete the AAS using the e-diary. The e-diary was to be used once daily on the same time of each day recording of participant's answers to the angioedema activity score over 7 days (AAS7) questionnaire.
# [1] = 400 mg TID, Week 8, omalizumab-naïve, angioedema at baseline
# [2] = 400 mg TID, Week 9, ITT, angioedema at baseline
# [3] = 400 mg TID, Week 9, omalizumab-naïve
# [4] = 400 mg TID, Week 9, omalizumab-naïve, angioedema at baseline
# [5] = 400 mg TID, Week 10, ITT, angioedema at baseline
# [6] = 400 mg TID, Week 10, omalizumab-naïve
# [7] = 400 mg TID, Week 10, omalizumab-naïve, angioedema at baseline
# [8] = 400 mg TID, Week 11, ITT, angioedema at baseline
# [9] = 400 mg TID, Week 11, omalizumab-naïve
# [10] = 400 mg TID, Week 11, omalizumab-naïve, angioedema at baseline
# [11] = 400 mg TID, Week 12, ITT, angioedema at baseline
# [12] = 400 mg TID, Week 12, omalizumab-naïve
# [13] = 400 mg TID, Week 12, omalizumab-naïve, angioedema at baseline
# [14] = 400 mg TID, omalizumab-naïve population, angioedema at baseline
# [15] = End of Study, 400 mg TID, Incomplete Responders with angioedema at baseline, both values imputed
# [16] = Omalizumab-Naïve Population, 400 mg BID, End of Study
# [17] = Omalizumab-Naïve Population, 400 mg BID, Week 1
# [18] = Omalizumab-Naïve Population, 400 mg BID, Week 2
# [19] = Omalizumab-Naïve Population, 400 mg BID, Week 3
# [20] = Omalizumab-Naïve Population, 400 mg BID, Week 4
# [21] = Omalizumab-Naïve Population, 400 mg BID, Week 5
# [22] = Omalizumab-Naïve Population, 400 mg BID, Week 6
# [23] = Omalizumab-Naïve Population, 400 mg BID, Week 7
# [24] = Omalizumab-Naïve Population, 400 mg BID, Week 8
# [25] = Omalizumab-Naïve Population, 400 mg BID, Week 9
smiles,measurement,setting,value
"CC(C)(C=C(C#N)C(=O)N1CCC[C@@H](n2nc(-c3ccc(Oc4ccccc4)cc3F)c3c(N)ncnc32)C1)N1CCN(C2COC2)CC1 [rilzabrutinib, (R)-2-[3-[4-amino-3-(2-fluoro-4-phenoxy-phenyl)pyrazolo[3,4-d]pyrimidin-1-yl]piperidine-1-carbonyl]-4-methyl-4-[4-(oxetan-3-yl)piperazin-1-yl]pent-2-enenitrile]","AAS7 = 0, OR (95% CI) for rilzabrutinib vs. placebo",[1],0.690
same,"AAS7 = 0, RRD (%) for rilzabrutinib vs. placebo (95% CI)",[1],−6.2 %
same,AAS7 Post-baseline Mean (SD),[1],12.20 (13.05)
same,"Participants with AAS7 = 0, Responder n (%)",[1],6 (26.1) n (%)
same,AAS7 % Change difference for rilzabrutinib vs. placebo LS Mean (95% CI),[2],"−34.54 (−64.85, −4.23) %"
same,AAS7 Change difference for rilzabrutinib vs. placebo LS Mean (95% CI),[2],"−13.12 (−23.93, −2.31)"
same,AAS7 Change from baseline LS Mean (SE),[2],−42.57 (4.09)
same,AAS7 Post-baseline Mean (SD),[2],7.98 (11.59)
same,"Non-responder n (%), AAS7 = 0",[3],15 (44.1) n (%)
same,"OR (95% CI) for rilzabrutinib vs. placebo, AAS7 = 0",[3],1.155
same,"RRD (%) for rilzabrutinib vs. placebo (95% CI), AAS7 = 0",[3],3.6 %
same,"Responder n (%), AAS7 = 0",[3],19 (55.9) n (%)
same,AAS7 % Change difference for rilzabrutinib vs. placebo LS Mean (95% CI),[4],"−37.56 (−71.28, −3.83) %"
same,AAS7 % Change from baseline LS Mean (SE),[4],−84.73 (12.57) %
same,"AAS7 = 0, Non-responder n (%)",[4],13 (56.5) n (%)
same,"AAS7 = 0, OR (95% CI) for rilzabrutinib vs. placebo",[4],1.358
same,"AAS7 = 0, RRD (%) for rilzabrutinib vs. placebo (95% CI)",[4],6.9 %
same,AAS7 Post-baseline Mean (SD),[4],8.52 (12.19)
same,"Participants with AAS7 = 0, Responder n (%)",[4],10 (43.5) n (%)
same,AAS7 % Change difference for rilzabrutinib vs. placebo LS Mean (95% CI),[5],"−38.35 (−79.56, 2.86) %"
same,AAS7 % Change from baseline LS Mean (SE),[5],−87.33 (15.54) %
same,AAS7 Change difference for rilzabrutinib vs. placebo LS Mean (95% CI),[5],"−13.07 (−24.96, −1.18)"
same,AAS7 Change from baseline LS Mean (SE),[5],−43.40 (4.49)
same,AAS7 Post-baseline Mean (SD),[5],7.10 (9.58)
same,"Non-responder n (%), AAS7 = 0",[6],16 (47.1) n (%)
same,"RRD (%) for rilzabrutinib vs. placebo (95% CI), AAS7 = 0",[6],6.0 %
same,"Responder n (%), AAS7 = 0",[6],18 (52.9) n (%)
same,AAS7 % Change from baseline LS Mean (SE),[7],−89.99 (16.85) %
same,"AAS7 = 0, Non-responder n (%)",[7],13 (56.5) n (%)
same,"AAS7 = 0, OR (95% CI) for rilzabrutinib vs. placebo",[7],1.627
same,"AAS7 = 0, RRD (%) for rilzabrutinib vs. placebo (95% CI)",[7],11.0 %
same,AAS7 Post-baseline Mean (SD),[7],6.83 (9.73)
same,"Participants with AAS7 = 0, Responder n (%)",[7],10 (43.5) n (%)
same,AAS7 % Change difference for rilzabrutinib vs. placebo LS Mean (95% CI),[8],"−15.53 (−43.68, 12.62) %"
same,AAS7 Change difference for rilzabrutinib vs. placebo LS Mean (95% CI),[8],"−6.88 (−18.42, 4.67)"
same,AAS7 Change from baseline LS Mean (SE),[8],−40.74 (4.34)
same,AAS7 Post-baseline Mean (SD),[8],9.40 (13.36)
same,"Non-responder n (%), AAS7 = 0",[9],15 (44.1) n (%)
same,"OR (95% CI) for rilzabrutinib vs. placebo, AAS7 = 0",[9],1.142
same,"RRD (%) for rilzabrutinib vs. placebo (95% CI), AAS7 = 0",[9],3.1 %
same,"Responder n (%), AAS7 = 0",[9],19 (55.9) n (%)
same,"AAS7 = 0, Non-responder n (%)",[10],13 (56.5) n (%)
same,"AAS7 = 0, OR (95% CI) for rilzabrutinib vs. placebo",[10],1.160
same,"AAS7 = 0, RRD (%) for rilzabrutinib vs. placebo (95% CI)",[10],3.1 %
same,AAS7 Post-baseline Mean (SD),[10],9.80 (13.81)
same,"Participants with AAS7 = 0, Responder n (%)",[10],10 (43.5) n (%)
same,AAS7 % Change difference for rilzabrutinib vs. placebo LS Mean (95% CI),[11],"−19.84 (−46.44, 6.76) %"
same,AAS7 % Change from baseline LS Mean (SE),[11],−82.82 (10.03) %
same,AAS7 Change difference for rilzabrutinib vs. placebo LS Mean (95% CI),[11],"−8.06 (−19.05, 2.94)"
same,AAS7 Change from baseline LS Mean (SE),[11],−43.36 (4.14)
same,AAS7 Post-baseline Mean (SD),[11],7.37 (12.64)
same,patients with angioedema score (AAS7) of 0,[12],60.9%
same,"Non-responder n (%), AAS7 = 0",[12],12 (35.3) n (%)
same,"OR (95% CI) for rilzabrutinib vs. placebo, AAS7 = 0",[12],1.685
same,"RRD (%) for rilzabrutinib vs. placebo (95% CI), AAS7 = 0",[12],13.0 %
same,"Responder n (%), AAS7 = 0",[12],22 (64.7) n (%)
same,"AAS7 = 0, Non-responder n (%)",[13],9 (39.1) n (%)
same,"AAS7 = 0, OR (95% CI) for rilzabrutinib vs. placebo",[13],3.085
same,"AAS7 = 0, RRD (%) for rilzabrutinib vs. placebo (95% CI)",[13],29.7 %
same,AAS7 Post-baseline Mean (SD),[13],7.10 (12.86)
same,"Participants with AAS7 = 0, Responder n (%)",[13],14 (60.9) n (%)
same,LS mean change from baseline in AAS7 at Week 12,[14],−44.04
same,decrease from baseline in AAS7 at Week 12,[14],84.63%
same,patients achieving angioedema score (AAS7) of 0,"400 mg TID, within one week of initiating treatment, omalizumab-naïve",30.4%
same,"AAS7, Mean (SD)",[15],30.42 (14.73)
same,"AAS7, Median",[15],30.42
same,"AAS7 Change from baseline, Mean (SD)",[15],1.50 (2.12)
same,"AAS7 Change from baseline, Median",[15],1.50
same,"AAS7 Percent change from baseline, Median",[15],8.82
same,"AAS7, Mean (SD)",[16],27.33 (24.01)
same,"AAS7, Median",[16],37.00
same,"AAS7 Change from baseline, Mean (SD)",[16],−38.33 (25.03)
same,"AAS7 Change from baseline, Median",[16],−37.00
same,"AAS7 Percent change from baseline, Mean (SD)",[16],−57.91 (38.75) %
same,"AAS7 Percent change from baseline, Median",[16],−50.00%
same,"AAS7 Change from baseline, Mean (SD)",[17],−21.44 (18.46)
same,"AAS7 Change from baseline, Median",[17],−22.00
same,"AAS7 Percent change from baseline, Mean (SD)",[17],62.04 (42.40) %
same,"AAS7 Percent change from baseline, Median",[17],−82.71%
same,"AAS7, Median",[18],14.00
same,"AAS7 Change from baseline, Mean (SD)",[18],−22.60 (18.31)
same,"AAS7 Change from baseline, Median",[18],−23.00
same,"AAS7 Percent change from baseline, Mean (SD)",[18],−45.07 (90.72) %
same,"AAS7 Percent change from baseline, Median",[18],−77.03%
same,"AAS7, Median",[19],6.50
same,"AAS7 Change from baseline, Mean (SD)",[19],−30.63 (24.46)
same,"AAS7 Change from baseline, Median",[19],−25.88
same,"AAS7 Percent change from baseline, Mean (SD)",[19],−45.93 (125.55) %
same,"AAS7 Percent change from baseline, Median",[19],−89.45%
same,"AAS7 Change from baseline, Mean (SD)",[20],−30.05 (20.80)
same,"AAS7 Change from baseline, Median",[20],−28.00
same,"AAS7 Percent change from baseline, Mean (SD)",[20],−53.69 (109.03) %
same,"AAS7 Percent change from baseline, Median",[20],−82.09%
same,"AAS7, Median",[21],0.00
same,"AAS7 Change from baseline, Mean (SD)",[21],−30.86 (24.37)
same,"AAS7 Change from baseline, Median",[21],−24.00
same,"AAS7 Percent change from baseline, Mean (SD)",[21],−66.40 (54.16) %
same,"AAS7 Percent change from baseline, Median",[21],−100.00%
same,"AAS7, Median",[22],3.00
same,"AAS7 Change from baseline, Mean (SD)",[22],−31.58 (23.39)
same,"AAS7 Change from baseline, Median",[22],−24.00
same,"AAS7 Percent change from baseline, Mean (SD)",[22],−70.72 (39.56) %
same,"AAS7 Percent change from baseline, Median",[22],−92.19%
same,"AAS7, Median",[23],4.67
same,"AAS7 Change from baseline, Mean (SD)",[23],−33.54 (24.64)
same,"AAS7 Change from baseline, Median",[23],−30.00
same,"AAS7 Percent change from baseline, Mean (SD)",[23],−68.05 (40.33) %
same,"AAS7 Percent change from baseline, Median",[23],−88.60%
same,"AAS7, Median",[24],0.00
same,"AAS7 Change from baseline, Mean (SD)",[24],−36.21 (24.67)
same,"AAS7 Change from baseline, Median",[24],−32.00
same,"AAS7 Percent change from baseline, Mean (SD)",[24],−74.90 (43.31) %
same,"AAS7 Percent change from baseline, Median",[24],−100.00%
same,"AAS7, Median",[25],0.00
same,"AAS7 Change from baseline, Mean (SD)",[25],−34.83 (26.07)
same,"AAS7 Change from baseline, Median",[25],−32.00
same,"AAS7 Percent change from baseline, Mean (SD)",[25],−67.10 (66.88) %
same,"AAS7 Percent change from baseline, Median",[25],−100.00%
